Measured values as given in EP4069192B1 (Solis Herrera, Arturo, priority 2019, dated 2021).
In brackets after ≈: the same amount, converted by molar mass.

Tests used:
A549 cells = experiment: cells; conditions: Homo sapiens, A549, 96 h
Description: (§1) Further, a proliferation test was prepared for the same three cell lines: WI-38, A549 and HS 683. 3x10^4 WI-38 cells and 2x10^4 A549 and HS 683. Cells were seeded into each wells in 96-well culture plates in appropriate culture medium with 10% FBS (fetal bovine serum). […] After 96 hours incubation in 37°C/5%CO2 MTT assay was performed for establishing the cell viability.

HS-683 = experiment: cells; conditions: Homo sapiens, Hs 683, 96 h
Description: as §1

WI-38 cells = experiment: cells; conditions: Homo sapiens, WI-38, 96 h
Description: as §1

IFN-γ production = tested on: IFN-γ production
Description: (§2) After 24 hours of incubation in 37°C/5%CO2 samples of leukocytes and supernatants were collected.
(§3) Cytokine levels were determined using ELISA kits (BD Biosciences, USA) for human IFNγ, TNF-α and IL-6 and DuoSet for human IL-3 (R&D Systems, USA) according to the producers' instructions. The optical density was measured at 450 nm using a Multiskan RC spectrophotometric reader (Thermo Labsystems, USA), Cytokine concentrations were expressed in pg/ml.

IL-6 production = tested on: IL-6 production
Description: as §2, §3

TNF-α production = tested on: TNF-α production
Description: as §2, §3

H1N1 virus = conditions: 0,002 mg/kg each 24 hours; 24 hours after treatment; 15000 treated vs 15000 control chicken, control turned down the production of eggs
[1] = rat, in vivo
[2] = in vivo
[3] = tested on: A549 (human lung adenocarcinoma epithelial cell line); conditions: A549, 48 hours, MTT
[4] = tested on: HS683 (human neuronal glioma cell line); conditions: HS-683, 48 hours, MTT
[5] = tested on: human PBLs (leukocytes of peripheral blood); conditions: 48 hours, MTT
Description: Thereby, cell viability was determined on the basis of the mitochondria-dependent reduction of MTT (3-[4,5-dimethyltiazol 2yl]-2,5-diphenyltetrazolium bromide) to formazan. […] Next cells were treated with 20 µl of MTT. After 3 hours of incubation at 37°C, the formazan blue formed in the cells was dissolved in 100 µl of SDS (sodium dodecylsulfate) for 3 hours in 37°C. The optical density was measured at 570 nm.
After the cytotoxicity tests LC50 (LC50-lethal concentration, 50%-dose required to kill half of the cells after a specified test duration) were estimated for each cell lines and PBLs (leukocytes of peripheral blood). Additionally for PBLs LC10 and LC5 were calculated.
On the basis of the results of MTT assay for human leukocytes the LC50, LC10 and LC5 were evaluated.

cell proliferation = experiment: cells; conditions: Homo sapiens, read-out: doses that inhibit 50% of cell proliferation
[6] = intranasal spray, single 3 mg dose, women, before emergence from general anesthesia; cited from earlier work
[7] = read-out: concentration that inhibits 50% of the proliferation

CN1CCC[C@H]1c1cccnc1
IC50 (A549 cells; [7]): 2000 µg/mL (≈ 12.3 mM) | IC99 (A549 cells; read-out: concentration that inhibits 99% of the proliferation): 5500 µg/mL | IC99 (HS-683; read-out: concentration at which 99% of proliferation are inhibited): 5500 µg/mL | IC50 (HS-683; [7]): 2900 µg/mL (≈ 17.9 mM) | IC50 (WI-38 cells; [7]): 1000 µg/mL (≈ 6.16 mM) | IC99 (WI-38 cells; read-out: concentration that inhibits a proliferation of 99%): 4500 µg/mL | effect on IFN-γ production (IFN-γ production): strongly decreases the level of interferon in a dose-dependent manner | effect on IL-6 production (IL-6 production): no effect | effect on TNF-α production (TNF-α production): increases the level of cytokines in a dose-dependent manner | production of eggs (H1N1 virus): began to lay off eggs | mortality [1]: 0,625 of 8 rats | healing effect [2]: increased healing effect | LC50 [3]: 4,5 mg/ml | LC50 [4]: 3,5 mg/ml | LC5 [5]: 0,5 mg/ml | LC10 [5]: 1000 µg/mL (≈ 6.16 mM) | IC50 (cell proliferation): > 1000 µg/mL | pain scores during the first day post-surgery [6]: significant reduction in pain scores | risks of hypertension of tachycardia [6]: not increasing the risks
